The structures appear in SMILES notation.

The values that follow come from ChEMBL document CHEMBL1250443, “Microarray-based method for monitoring yeast overexpression strains reveals small-molecule targets in TOR pathway” (Nat Chem Biol, 2006).

Test [1] in a line: Inhibition of TOR signaling in wild-type Saccharomyces cerevisiae transformed with overexpression plasmids assessed as increased PDR17 gene expression by microarray.
Test [2] relates to Saccharomyces cerevisiae. The test can be described thus: Decrease of YDR222W gene expression in wild-type Saccharomyces cerevisiae transformed with overexpression plasmids by microarray. It is filed as functional.
Test [3] deals with Saccharomyces cerevisiae. The test can be described thus: Decrease of FET4 gene expression in wild-type Saccharomyces cerevisiae transformed with overexpression plasmids by microarray. The class given is functional.
The nature of test [4]: Inhibition of TOR signaling in wild-type Saccharomyces cerevisiae transformed with overexpression plasmids assessed as increased YFL030W gene expression by microarray.
The nature of test [5]: Inhibition of TOR signaling in wild-type Saccharomyces cerevisiae transformed with overexpression plasmids assessed as decreased VTI1 gene expression by microarray.
Test [6] in a line: Inhibition of TOR signaling in wild-type Saccharomyces cerevisiae transformed with overexpression plasmids assessed as increased YFR044C gene expression by microarray.
A short description of test [7]: Inhibition of TOR signaling in wild-type Saccharomyces cerevisiae transformed with overexpression plasmids assessed as increased YOR220W gene expression by microarray.
Test [8] can be described thus: Inhibition of TOR signaling in wild-type Saccharomyces cerevisiae transformed with overexpression plasmids assessed as increased NOP7 gene expression by microarray.
Test [9] is described as follows: Inhibition of TOR signaling in wild-type Saccharomyces cerevisiae transformed with overexpression plasmids assessed as decreased YPL260W gene expression by microarray.
The nature of test [10]: Inhibition of TOR signaling in wild-type Saccharomyces cerevisiae transformed with overexpression plasmids assessed as increased NEM1 gene expression by microarray.
The test system of test [11] is Saccharomyces cerevisiae. The test can be described thus: Increase of YDR514C gene expression in wild-type Saccharomyces cerevisiae transformed with overexpression plasmids by microarray. The class given is functional.
Test [12] can be described thus: Inhibition of TOR signaling in wild-type Saccharomyces cerevisiae transformed with overexpression plasmids assessed as increased YDL025C gene expression by microarray.
Test [13] can be described thus: Inhibition of TOR signaling in wild-type Saccharomyces cerevisiae transformed with overexpression plasmids assessed as increased STM1 gene expression by microarray.
The nature of test [14]: Inhibition of TOR signaling in wild-type Saccharomyces cerevisiae transformed with overexpression plasmids assessed as increased WRS1 gene expression by microarray.
A short description of test [15]: Inhibition of TOR signaling in wild-type Saccharomyces cerevisiae transformed with overexpression plasmids assessed as decreased YNL305C gene expression by microarray.
Test [16] is described as follows: Inhibition of TOR signaling in wild-type Saccharomyces cerevisiae transformed with overexpression plasmids assessed as decreased YNL058C gene expression by microarray.
A short description of test [17]: Inhibition of TOR signaling in wild-type Saccharomyces cerevisiae transformed with overexpression plasmids assessed as increased URA5 gene expression by microarray.
A short description of test [18]: Inhibition of TOR signaling in wild-type Saccharomyces cerevisiae transformed with overexpression plasmids assessed as increased CIT1 gene expression by microarray.
A short description of test [19]: Inhibition of TOR signaling in wild-type Saccharomyces cerevisiae transformed with overexpression plasmids assessed as increased SEC14 gene expression by microarray.
A short description of test [20]: Inhibition of TOR signaling in wild-type Saccharomyces cerevisiae transformed with overexpression plasmids assessed as increased NOG1 gene expression by microarray.

As for `CO[C@H]1C[C@@H]2CC[C@@H](C)[C@@](O)(O2)C(=O)C(=O)N2CCCC[C@H]2C(=O)O[C@H]([C@H](C)C[C@@H]2CC[C@@H](O)[C@H](OC)C2)CC(=O)[C@H](C)/C=C(\C)[C@@H](O)[C@@H](OC)C(=O)[C@H](C)C[C@H](C)/C=C/C=C/C=C/1C` [SIROLIMUS], the fold change (FC) in test [1] is 2.9; with Saccharomyces cerevisiae [2] it was 5; with Saccharomyces cerevisiae [3] it was -5.1; in test [4] it was 3.2; in test [5], -2.8; in test [6], 4.7. The fold change (FC) in test [7] was 3.2; in test [8], 2.4; in [9] it was -2; in test [10], 2.2; with Saccharomyces cerevisiae [11], -3.1; in test [12], 2.5. The fold change (FC) was 5.7 in [13]; 2.8 in test [14]; -2.5 in test [15]; -2.1 in test [16]; 2.2 in [17]; 2.1 in test [18]. Besides, the values for the fold change (FC) in [19] and in [20] were 4.1 and 2.9, respectively.
